Measured values as given in patent publication US10894790B2, “Production method of thiazole derivative” (KYOWA KIRIN CO., LTD., priority 2015, dated 2021).
Like-named read-outs stand apart in the source and are kept apart here. Each block holds one molecule with its values, some of them ahead of it.

Experiments:
[1] = Absorbability test: plasma kinetics of compound IA after oral administration; format: in vivo; settings: male rats; for AUC0→∞ / Cmax / t1/2 / tmax / AUC(0-inf) / half-life: plasma compound IA
Procedure: HA crystal and A crystal obtained in Examples 11 and 12 were orally administered to male rats respectively, and plasma kinetics of compound IA were evaluated.

[2] = Stability test (preservation of crystal, powder X-ray diffraction); format: physicochemical
Procedure: Powder X-ray diffraction (permeation method) was measured by pulverizing a sample in an agate mortar, placing an appropriate amount thereof on a sample plate, and measuring diffraction peaks by changing the diffraction angle 2θ from 5° to 40°. The irradiate X ray used was copper Kα ray (CuKα ray), and tube voltage was set to […], tube electric current was set to 40 mA, step angle was set to 0.017°, and counting time was set to 0.56°/sec. The thermal analysis was performed by placing about 2 mg of a sample on an aluminum cell, and measuring differential scanning calorie (DSC) at a temperature rise rate of 10° C./min.
The A crystal obtained in Example 12 was preserved under the conditions of 40° C./75% RH (relative humidity) and 40° C./90% RH (relative humidity) for 6 months each, and powder X-ray diffraction was measured. […] It was confirmed that A crystal is stable even after preservation for a long term under humidified conditions of 40° C./75% RH (relative humidity) and 40° C./90% RH (relative humidity).
The HA crystal obtained in Example 11 was preserved for 2 weeks at 60° C., and then powder X-ray diffraction was measured. […] That is, a part of HA crystal is considered to undergo crystal transition to A crystal at 60° C.

[3] = male, rat, plasma, po, 10 mg/kg

bioavailability (in words) [1]: good bioavailability
rise of plasma concentration, A crystal compared with HA crystal [1]: increased more rapidly
BA ([1]; dose 1 mg/kg): 53.7%
AUC0→∞ ([1]; dose 1 mg/kg): 5350 ng·h/mL
Cmax ([1]; dose 1 mg/kg): 1410 ± 270 ng/mL
t1/2 ([1]; dose 1 mg/kg): 2.26 ± 0.26 h
tmax ([1]; dose 1 mg/kg): 1.00 ± 0.00 h
BA ([1]; dose 10 mg/kg): 51.2%
AUC0→∞ ([1]; dose 10 mg/kg): 51000 ng·h/mL
Cmax ([1]; dose 10 mg/kg): 11400 ± 1400 ng/mL
t1/2 ([1]; dose 10 mg/kg): 1.77 ± 0.09 h
tmax ([1]; dose 10 mg/kg): 1.67 ± 0.58 h
change of powder X-ray diffraction pattern after preservation ([2]; 40° C./75% RH, 6 months): did not show any change
change of powder X-ray diffraction pattern after preservation ([2]; 40° C./90% RH, 6 months): did not show any change
Structure (SMILES): Cc1ccc(C(=O)Nc2nc(-c3ccco3)c(C(=O)C3CCOCC3)s2)cn1 [A crystal]

bioavailability (in words) [1]: good bioavailability
BA ([1]; dose 1 mg/kg): 59.5%
BA ([1]; dose 10 mg/kg): 56.8%
Cmax ([1]; male, rat, plasma, po, 1 mg/kg, dose 1 mg/kg, read-out: Cmax): 1500 ± 100 ng/mL
tmax ([1]; male, rat, plasma, po, 1 mg/kg, dose 1 mg/kg, read-out: tmax): 1.33 ± 0.58 h
AUC(0-inf) ([1]; male, rat, plasma, po, 1 mg/kg): 5930 ng·h/mL
half-life ([1]; male, rat, plasma, po, 1 mg/kg): 2.08 ± 0.13 h
Cmax ([1]; male, rat, plasma, po, 10 mg/kg, dose 10 mg/kg, read-out: Cmax): 10900 ± 800 ng/mL
tmax ([1]; male, rat, plasma, po, 10 mg/kg, dose 10 mg/kg, read-out: tmax): 2 h
AUC(0-inf) [1, 3]: 56600 ng·h/mL
half-life [1, 3]: 3.43 ± 1.14 h
Structure (SMILES): Cc1ccc(C(=O)Nc2nc(-c3ccco3)c(C(=O)C3CCOCC3)s2)cn1 [HA crystal]
change of powder X-ray diffraction pattern after preservation ([2]; 60° C., 2 weeks): show a diffraction peak characteristic of A crystal
